{"source": "ChEMBL document CHEMBL1124178", "about": "“Nucleosides of 1,4-thiazin-3-one and derivatives as tetrahedral intermediate analogues of enzymes in pyrimidine nucleoside metabolism” (J Med Chem, 1988)", "format_in_all_cases": "functional", "key": {"CCRF-CEM": {"tested_on": "CCRF-CEM", "assay": "In vitro inhibitory activity against the growth of CCRF-CEM human T lymphoblastic leukemia.", "details": "read-out: ID50 (the source's name)"}, "L1210": {"tested_on": "L1210", "assay": "In vitro Inhibitory activity against the growth of L1210 murine lymphocytic leukemia", "details": "Mus musculus, read-out: ID50 (the source's name)"}, "Homo sapiens": {"species": "Homo sapiens", "assay": "In vitro Inhibitory activity against the growth of WIL-2 human B lymphoblastic leukemia."}}, "data": [{"smiles": "CC1=CSCC(=O)N1", "values": [{"measurement": "IC50", "setting": "CCRF-CEM", "result": 35.5, "unit": "µM"}, {"measurement": "IC50", "setting": "L1210", "result": 3, "unit": "µM"}, {"measurement": "ID50", "setting": "Homo sapiens", "result": 41.7, "unit": "µM"}]}]}
